In patent publication US20080113899A1, “Iron Supplement and Utilization of the Same” (GEKKEIKAN SAKE CO., LTD., priority 2004, published 2008):
Where two headings read alike, the source gives them in different places. Marks after values point to notes of the source that are not given here. Non-standard residues stand in square brackets, D forms with d. Residues, ends and D or L forms follow the SMILES beside them. ξ: configuration not given here. ξOrn(N(OH)Ac) = CC(=O)N(O)CCCC(N)C(=O)O

Tests used:
[1] = test system: SD male rats having iron deficiency anemia; test: Measurement of hemoglobin concentration in the blood; format: in vivo, rat; conditions: mean±SD of five rats
Description: The rats in the control group were fed iron-containing food 1 (ferric citrate) during the study.

[2] = test system: SD male rats having iron deficiency anemia; test: Measurement of serum iron concentration; format: in vivo, rat; conditions: 3 weeks free feeding, food iron content 35 ppm; mean±SD of five rats
Protocol: Serum was prepared from the blood wholly exsanguinated from the rats of each group after the rats had been given their iron-containing food, so as to measure iron concentrations in the serums by a usual method.

[3] = test system: SD male rats having iron deficiency anemia; test: Measurement of iron concentration in the liver; format: in vivo, rat; conditions: 3 weeks free feeding, food iron content 35 ppm; mean±SD of five rats
Protocol: Rats of the control group were fed food 1 (ferric citrate) from the beginning, i.e. through to the end. At the end of the experiment, livers were removed after perfusion of saline into the portal vein to exclude the blood; they were weighed and freeze-dried. The dried liver was subsequently incinerated and subjected to atomic absorption, so as to measure the iron concentration in the liver. Further, the water content of the liver was calculated, and the concentration of iron stored in the liver of the body was determined based on the iron concentration in the dried liver and the water content of the liver.

[4] = test system: SD male rats having iron deficiency anemia; conditions: rat, in vivo
Description: Five four-week-old SD male rats as the control group were fed iron-containing food 1.
The fifteen rats having iron deficiency anemia were subsequently divided into three groups, and were freely fed iron-containing foods 1, 2 and 3, respectively, for 3 weeks. As the iron source, iron-containing food 1 contains ferric citrate; iron-containing food 2 contains water-soluble heme iron; and iron-containing food 3 contains ferrichrysin.
Measurements were made by a usual method of the concentrations of protein, ALT (alanine aminotransferase), AST (aspartate aminotransferase) and creatinine in the serums of the groups of rats which were fed iron-containing food 1 (ferric citrate), food 2 (heme iron) and food 3 (ferrichrysin) after the development of iron deficiency anemia, as well as the rats in the control group which were fed food 1 (ferric citrate) from the beginning.

[5] = Solubility of ferrichrysin in water compared with other iron compounds; conditions: for Precipitate: 0.1 g in 1 ml, 37° C., 90 min, centrifuged, visual
Protocol: The solubility of ferrichrysin was compared with the solubilities of other iron compounds. Water-soluble heme iron, ferric citrate and ferrichrysin which were used in Example 1 were used as iron compounds. 0.1 g of each of these iron compounds was dissolved in 1 ml of each buffer having a pH of 2 or 7, and then the solutions were incubated at 37° C. for 90 min. A glycine/hydrochloric acid buffer was used as the pH 2 buffer, and a phosphate buffer was used as the pH 7 buffer. The concentration of buffer agent(s) in each buffer was adjusted to 0.1 mol/l. After being incubated, each buffer was centrifuged to visually confirm the presence or absence of precipitate. Further, the iron concentration in the supernatant of each buffer was measured by atomic absorption.

[6] = Thermal and pH stabilities of ferrichrysin (absorbance at 430 nm before/after sterilization); format: physicochemical; conditions: 0.25 mg/ml; for Absorbance at 430 nm after sterilization: 20 min, 120° C., 200 kPa
Protocol: Ferrichrysin is known to show an absorption maximum at 430 nm. Ferrichrysin was tested for pH and thermal stabilities utilizing this property.
Ferrichrysin prepared from a rice koji extract in the manner as described above was dissolved in ultrapure water to a concentration of 2.5 mg/ml. The resulting solution was subsequently diluted to give a ferrichrysin concentration of 0.25 mg/ml using each of the following buffers. A glycine-hydrochloric acid buffer was used for a pH 2 or pH 3 buffer; a acetate buffer was used for a pH 4 or pH 5 buffer; a phosphate buffer was used for a pH 6 or pH 7 buffer; a tris-hydrochloric acid buffer was used for a pH 8 buffer; and a glycine-sodium hydroxide buffer was used for a pH 9 or pH 10 buffer.
Each ferrichrysin solution was placed in a screw-cap test tube, and then the test tube was sealed. The solution was subsequently sterilized by a process of steaming under pressure for 20 min at a temperature of 120° C. and a pressure of 200 kPa. The absorbance of each solution at 430 nm was measured prior to and after the sterilization.

[7] = for Proportion of the iron concentration after the reaction to the initial iron concentration (1 mg/ml): phytic acid, 37° C., 3 hr, filtrate, cut-off 10000
Protocol: (§1) Ferrichrysin was tested for its reactivity with tannic acid and phytic acid, the typical iron uptake inhibitor, so as to compare its reactivity with that of other iron compounds with these iron uptake inhibitor.
(§2) A 0.6% tannic acid solution and a 0.6% phytic acid solution were also prepared. The pH of each of these solutions was adjusted with hydrochloric acid or sodium hydroxide to 2.0, 4.0, 6.0 or 8.0.
(§3) The iron-compound solutions were mixed with each of the tannic acid and phytic acid solutions at a volume ratio of 1:9, and then the mixtures were incubated at 37° C. for 3 hr, so as to react the iron compounds with each of these iron uptake inhibitor. The resulting solutions were centrifuged at 15000 rpm for 5 min, and then the supernatant of each solution was ultrafiltrated using membranes having a molecular weight cut-off of 10000. The iron concentration in each filtrate was measured by atomic absorption.

[8] = for Proportion of the iron concentration after the reaction to the initial iron concentration (1 mg/ml): tannic acid, 37° C., 3 hr, filtrate, cut-off 10000
Protocol: as §1, §2, §3

[9] = test system: SD male rats having iron deficiency anemia; conditions: rat, in vivo; remark: listed apart in the source

Creatinine [4]: 0.63 ± 0.06 mg/dL | Serum protein [4]: 67.6 ± 4.1 mg/mL | Water solubility, in words [5]: very high water solubility | Precipitate ([5]; pH 2.0): No | Precipitate ([5]; pH 7.0): No | Absorbance at 430 nm before sterilization ([6]; pH 2.0): 0.709 | Absorbance at 430 nm after sterilization ([6]; pH 2.0): 0.366 | Absorbance at 430 nm before sterilization ([6]; pH 3.0): 0.742 | Absorbance at 430 nm after sterilization ([6]; pH 3.0): 0.721 | Absorbance at 430 nm before sterilization ([6]; pH 4.0): 0.738 | Absorbance at 430 nm after sterilization ([6]; pH 4.0): 0.743 | Absorbance at 430 nm before sterilization ([6]; pH 5.0): 0.732 | Absorbance at 430 nm after sterilization ([6]; pH 5.0): 0.748 | Absorbance at 430 nm before sterilization ([6]; pH 6.0): 0.743 | Absorbance at 430 nm after sterilization ([6]; pH 6.0): 0.746 | Absorbance at 430 nm before sterilization ([6]; pH 7.0): 0.764 | Absorbance at 430 nm after sterilization ([6]; pH 7.0): 0.774 | Absorbance at 430 nm before sterilization ([6]; pH 8.0): 0.758 | Absorbance at 430 nm after sterilization ([6]; pH 8.0): 0.747 | Absorbance at 430 nm before sterilization ([6]; pH 9.0): 0.765 | Absorbance at 430 nm after sterilization ([6]; pH 9.0): 0.767 | Absorbance at 430 nm before sterilization ([6]; pH 10.0): 0.769 | Absorbance at 430 nm after sterilization ([6]; pH 10.0): 0.772 | Reactivity with iron-insolubilizing component, in words ([7]; pH 2): low reactivity | Proportion of the iron concentration after the reaction to the initial iron concentration (1 mg/ml) ([7]; pH 2.0): 85.7% | Proportion of the iron concentration after the reaction to the initial iron concentration (1 mg/ml) ([7]; pH 4.0): 100.6% | Proportion of the iron concentration after the reaction to the initial iron concentration (1 mg/ml) ([7]; pH 6.0): 101.8% | Proportion of the iron concentration after the reaction to the initial iron concentration (1 mg/ml) ([7]; pH 8.0): 100.3% | Reactivity with iron-insolubilizing component, in words ([8]; pH 2): low reactivity | Proportion of the iron concentration after the reaction to the initial iron concentration (1 mg/ml) ([8]; pH 2.0): 80.5% | Proportion of the iron concentration after the reaction to the initial iron concentration (1 mg/ml) ([8]; pH 4.0): 71.8% | Proportion of the iron concentration after the reaction to the initial iron concentration (1 mg/ml) ([8]; pH 6.0): 76.1% | Proportion of the iron concentration after the reaction to the initial iron concentration (1 mg/ml) ([8]; pH 8.0): 81.9% | Average food intake [9]: 366.3 g/3 weeks
Structure (SMILES): CC(=O)N([O-])CCCC1NC(=O)CNC(=O)C(CO)NC(=O)C(CO)NC(=O)C(CCCN([O-])C(C)=O)NC(=O)C(CCCN([O-])C(C)=O)NC1=O.[Fe+3] (stereo not drawn) [Ferrichrysin, ferrichrysin] (cyclo(G[ξOrn(N(OH)Ac)][ξOrn(N(OH)Ac)][ξOrn(N(OH)Ac)]SS); configuration not given here)
Hemoglobin concentration in the blood, after feeding iron-containing food ([1]; 3 weeks free feeding, food iron content 35 ppm): 14.3 ± 0.3 g/dL | Hemoglobin concentration in the blood, before feeding iron-containing food ([1]; baseline after 35 days iron-deficient food): 6.4 ± 0.9 g/dL | Serum iron concentration after feeding iron-containing food [2]: 116.7 ± 24.1 µg/dL | Iron concentration in the liver [3]: 39.3 ± 7.6 ppm | ALT [4]: 17.7 ± 2.3^a Karmen | AST [4]: 72.3 ± 3.2^b Karmen | Side effects on the body (liver and kidney function), in words [4]: no harmful side effects | Body weight gain [9]: 70.1 ± 8.3 g/3 weeks
